By LD50 is commonly meant the dose at which mortality reaches 50%.

Molecules are shown by their SMILES.

Five molecules from patent publication US4594190A, “Quaternary salts of dibenzo[1,4]diazepinones, pyrido-[1,4]benzodiazepinones, pyrido[1,5]benzodiazepinones with antiulcer, antisecretory, spasmolytic and antimusarinic activities” (priority 1983, dated 1986) can be followed below.

In data set [1] the test system is gastric acid secretion. Description: Gastric acid secretion in the pylorus ligated rat (antisecretory activity). Format: in vivo, rat (male Sprague-Dawley). As to conditions: 4 hours. The procedure: GASTRIC ACID SECRETION IN THE PYLORUS LIGATED RAT
Male Sprague-Dawley rats weighing 150±5 g fasting since 48 hours were used. Pylorus ligation was performed for 4 hours. The products under examination were administered by the oral route immediately after the ligation.

Data set [2] in a line: in vivo. The settings on record: mouse, oral, Swiss mice, 14 days observation. On the procedure: The acute toxicity was determined by administering by oral route the substances under exam to Swiss mice, average weight 20±2 g. The observation period was 14 days. 10 Animals were used for each assayed dose.
For data set [3], the system named is carbachole-induced salivation. Kind of data set: Carbachole salivation in the rat. Format: in vivo, rat (male Sprague-Dawley). As to conditions: 62.5 mg/kg p.o., one hour before carbachole 1 mg/kg i.p. The procedure: CARBACHOLE SALIVATION IN THE RAT
The method cited by R. Turner: "Parasympatholytic Agents" in R. Turner "Screening Methods in Pharmacology" pag. […] Academic Press. […] Male Sprague-Dawley rats, mean weight 150±5 g, fasting since 24 hours, were used.
The salivation was induced by the intraperitoneal administration of 1 mg/kg of carbachole. The products under exam were administered orally one hour before the cholinergic stimulus.

With `C[N+]1(C)CC[N+](C)(CC(=O)N2c3ccccc3C(=O)Nc3cccnc32)CC1` [Compound 2, 11-[2-(4-Methylpiperazin-1-yl)acetyl]-5,11-dihydro-6H-pyrido[2,3-b][1,4]benzodiazepin-6-one N^1,4 bisiodomethylate], the results for the “% Antisecretory activity” value in data set [1] (6.25 mg/kg p.o.), in data set [1] (12.5 mg/kg p.o.) and in data set [1] (25 mg/kg p.o.) were 10.3%, 15.1% and 20.4%, respectively. In data set [2], this molecule had an LD50 at 336 h of over 500 mg/kg. Besides, the “Salivation by carbachol- protection %” value in data set [3] came out at 30%.
The corresponding values for `C[N+](C)(C)CC(=O)N1c2ccccc2C(=O)Nc2cccnc21` [Compound 3, 11-(2-Dimethylaminoacetyl)-5,11-dihydro-6H-pyrido-[2,3-b][1,4]-benzodiazepin-6-one iodomethylate] are 6.0%, 14.3%, 35.9%, under 500 mg/kg and 0%.
The matching figures for `C[N+]1(CC(=O)N2c3ccccc3C(=O)Nc3cccnc32)CCCCC1` [Compound 4, 11-[2-(Piperidin-1-yl)acetyl]-5,11-dihydro-6H-pyrido[2,3-b][1,4]benzodiazepin-6-one iodomethylate]: 22.7%, 48.1%, 70.3%, over 500 mg/kg and 70%.
The matching figures for `C[N+]1(CCC(=O)N2c3ccccc3C(=O)Nc3cccnc32)CCCCCC1` [Compound 13]: 19.2%, 47.5%, 69.6%, over 500 mg/kg and 30%.
On to `CC(C)(C)C(=O)OC[N+]1(C)CCC(C(=O)N2c3ccccc3C(=O)Nc3cccnc32)CC1` (stereo not shown) [Compound 15], for which the “% Antisecretory activity” value in data set [1] (6.25 mg/kg p.o.) is on record as 9.6%; in data set [1] (12.5 mg/kg p.o.) it was 27.7%; in data set [1] (25 mg/kg p.o.), 41.8%. This molecule gave an LD50 at 336 h in data set [2] of over 500 mg/kg. Also, the “Salivation by carbachol- protection %” value in data set [3] is 10%.
